Reference: patent US6284768A, “Src family SH2 domain inhibitors” (Boehringer Ingelheim Pharmaceuticals, Inc., priority 1999, dated 2001)

Columns and labels:
[1] = target: T1, p56lck GST-SH2 (lck SH2 domain) (Homo sapiens, UniProt P06239); test: Receptor-ligand equilibrium binding constants by surface plasmon resonance (biosensor), lck SH2 domain; details: Table 1, compounds of formula (II)
T1 construct: GST (N)

[2] = system: Inter-leukin 2 (IL-2) production by activated Human Primary T Lymphocytes; test: Primary T cell assay: inhibition of IL-2 production by activated human primary CD4 positive T lymphocytes; assay type: cell-based; details: Homo sapiens, CD4 positive, Table 5; mean IC50 value; CD4 positive T cells activated with anti-CD3/anti-CD28, IL-2 by ELISA; read-out: IC50 (blocking IL-2 production)
Experimental: Summary of Primary T Cell Assay.
Inhibitors of the lck SH2 domain were assayed for their ability to block Inter-leukin 2 (IL-2) production by activated Human Primary T Lymphocytes. Peripheral blood mononuclear cells were isolated from whole blood by centrifugation in ficoll-Pague partitioning medium. CD4 positive cells were purified using negative selection. […] The compounds, at the appropriate dilutions, were added, and the cells were incubated for 60 minutes at 37° C. The CD4 positive T cells were then activated by the addition of anti-CD3 (60 ng/mL), anti CD28 (500 ng/mL) and goat anti mouse IgG coated beads, and incubated overnight at 37° C. The cells were pelleted, and the supernatents assayed for IL-2 by ELISA.
As SH2 domain containing proteins are intracellular, any therapeutic agent must be able to cross biological membranes. […] These characteristics may be quantified by observing inhibition in IL-2 production in human blood CD4 positive T-lymphocytes after T cell receptor and CD28 cross-linking.

T1 sequence (P06239 127-224 limits assumed): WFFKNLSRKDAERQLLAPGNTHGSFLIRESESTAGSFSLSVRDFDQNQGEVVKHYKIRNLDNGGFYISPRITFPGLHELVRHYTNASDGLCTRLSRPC

Kd [1] [µM] | IC50 [2] [µM] | SMILES
1.3 | 70 | COc1ccc(Cn2ccc(C)c(NC(=O)C(Cc3ccc(C(C)(C)C(=O)O)cc3)NC(=O)C(C)(C)c3ccc(C(F)(F)F)cc3)c2=O)cc1 (centres unmarked) [Compound 217]
1.7 | 75 | COc1ccc(Cn2ccc(C)c(NC(=O)C(Cc3ccc(C(C)(C)C(=O)O)cc3)NC(=O)Cc3ccc(-c4ccccc4)cc3)c2=O)cc1 (centres unmarked) [Compound 158]
1.9 | 136 | CCCCCCn1ccc(C)c(NC(=O)C(Cc2ccc(C(C)(C)C(=O)O)cc2)NC(=O)COc2ccccc2)c1=O (centres unmarked) [Compound 205]
1 | 67 | COc1ccc(Cn2ccc(C)c(NC(=O)C(Cc3ccc(C(C)(C)C(=O)O)cc3)NC(=O)COc3cccc4ccccc34)c2=O)cc1 (centres unmarked) [Compound 174]

Continued, molecule first:

SMILES | Kd [1] [µM] | IC50 [2] [µM]
Cc1ccn(Cc2ccc3c(c2)OCO3)c(=O)c1NC(=O)C(Cc1ccc(C(C)(C)C(=O)O)cc1)NC(=O)Cc1ccc2ccccc2c1 (centres unmarked) [Compound 155] | 0.37 | 76
COc1ccc(Cn2ccc(C)c(NC(=O)C(Cc3ccc(C4(C(=O)O)CCCC4)cc3)NC(=O)Cc3ccc4ccccc4c3)c2=O)cc1 (racemic) [Compound 108] | 2.8 | 69
COc1ccc(Cn2ccc(C)c(NC(=O)[C@H](Cc3ccc(C(C)(C)C(=O)O)cc3)NC(=O)C(C)(C)c3ccc(C(C)C)cc3)c2=O)cc1 [Compound 118] | 0.61 | 61
